Source: article PMC10060569 (Frontiers in Pharmacology, 2023)

Assays:
hP2X4R = target: T1, hP2X4R (Homo sapiens, UniProt Q99571); assay: TEVC of ATP-induced currents, hP2X4R in X. laevis oocytes (steady-state protocol); assay type: cell-based
T1 construct: expressed in transfected cells; host or cells: Xenopus laevis oocytes (cRNA injection)
T1 sequence (Q99571 1-388): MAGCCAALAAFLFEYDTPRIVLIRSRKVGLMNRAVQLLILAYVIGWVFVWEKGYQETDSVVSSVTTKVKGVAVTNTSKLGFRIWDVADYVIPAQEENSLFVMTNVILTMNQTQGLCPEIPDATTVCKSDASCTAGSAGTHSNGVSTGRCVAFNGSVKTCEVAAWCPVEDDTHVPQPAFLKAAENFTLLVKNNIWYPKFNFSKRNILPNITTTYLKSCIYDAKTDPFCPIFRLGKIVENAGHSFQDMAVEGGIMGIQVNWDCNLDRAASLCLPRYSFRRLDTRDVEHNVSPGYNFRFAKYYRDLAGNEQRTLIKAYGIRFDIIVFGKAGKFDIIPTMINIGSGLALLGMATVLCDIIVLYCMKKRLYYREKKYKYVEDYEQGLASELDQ
Description: Oocyte expression plasmids encoding the wild-type (wt) and N-terminally His-tagged (His-) fusion constructs of the hP2X2R, hP2X3R, hP2X4R, and hP2X7R, and the mutant His-^20RMVL^23KVIV^23S^26N-hP2X1R, S^15V-rP2X3R, and His-S^15V-hP2X3R were the same as used in previous research ([Hausmann et al., 2006]; [Wolf et al., 2011]; [Hausmann et al., 2014]; [Obrecht et al., 2019]). In most cases, the N-terminal His-tagged variants of P2XRs were used here and in the previous studies to allow biochemical analyses on affinity-purified proteins using the same constructs. Although this was not required for the present study, it allows for better comparability with our previous studies. […]
Ion currents mediated by P2X receptors were evoked by the indicated concentration of ATP or α,β-meATP and were recorded 1 or 2 days after cRNA injection at ambient temperature at a holding potential of −60 mV by two-electrode voltage clamp (TEVC) as previously described ([Hausmann et al., 2006]). […]

S15V-rP2X3R = target: T2, S15V-rP2X3R (Rattus norvegicus, UniProt P49654, S15V); set-up: method as in Obrecht et al., 2019; conditions: previous screening; ref Obrecht et al., 2019; cited from earlier work
T2 construct: expressed in transfected cells; host or cells: Xenopus laevis oocytes (cRNA injection)
T2 sequence (P49654 1-397 S15V): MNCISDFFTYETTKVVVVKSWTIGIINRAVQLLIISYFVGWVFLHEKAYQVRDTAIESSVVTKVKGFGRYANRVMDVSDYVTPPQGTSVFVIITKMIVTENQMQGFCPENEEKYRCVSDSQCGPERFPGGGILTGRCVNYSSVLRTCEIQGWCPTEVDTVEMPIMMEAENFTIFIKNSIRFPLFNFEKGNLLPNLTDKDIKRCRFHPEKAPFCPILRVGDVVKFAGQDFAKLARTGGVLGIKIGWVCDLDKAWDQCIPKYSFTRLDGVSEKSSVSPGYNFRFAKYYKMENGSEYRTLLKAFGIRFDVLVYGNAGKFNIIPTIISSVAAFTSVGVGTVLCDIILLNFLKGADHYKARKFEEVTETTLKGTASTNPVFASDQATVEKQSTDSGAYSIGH

O=C(O)Cc1ccccc1Nc1c(Cl)cccc1Cl [Diclofenac, diclofenac]
IC50 (hP2X4R; 10 µM ATP, steady-state protocol, X. laevis oocytes): 1110 µM | inhibition at 1000 µM (hP2X4R; read-out: Max. inhibition at 1 mM): 61.2% | inhibition of S15V-rP2X3R-mediated currents in screening (S15V-rP2X3R): > 80%
